Where a name gives a salt, the structure may show the parent alone. Read-outs that look alike come from different tables or passages of the source. Marks after values point to notes of the source that are not given here.
Columns and labels:
[1] = tested on: basal gastric acid secretion in rats; assay: Inhibitory test of basal gastric acid secretion in pylorus-ligated rats after intragastric administration; assay type: in vivo, SD rats; settings: for Inhibitory rate (basal gastric acid secretion) / Amount of gastric juice / Total acid amount of the gastric juice: n = 10; for Amount of gastric juice: pylorus ligation 1 h after administration, gastric juice collected after 4 h; for Amount of gastric juice / Total acid amount of the gastric juice: X ± S; for Total acid amount of the gastric juice: titration with 0.01 mol/L NaOH; for Effect on the total acid amount of the gastric juice as compared with the model control group: I-1a 2 mg/kg and 1 mg/kg, vonoprazan fumarate 2 mg/kg, P<0.05 or P<0.01
From the text: An equal amount of deuterated vonoprazan fumarate derivatives I-1a, I-2a, I-3a and I-4a prepared and obtained in the Examples and vonoprazan fumarate (vonoprazan was 1-[5-(2-fluorophenyl)-1-(pyridin-3-yl-sulfonyl)-1H-pyrrol-3-yl]-N-methylmethanamine) were taken respectively and subjected to the inhibitory activity test on gastric acid secretion in rats.
SD rats which were SPF grade and weighed 180 to 200 g were selected and used in this experiment. The rats were grouped randomly with 10 rats in each group (half male and half female). Animals were fasted but free to access water for 16 hours. 1 hour after administration, the animals were anesthetized with isoflurane and fixed in a supine position. The abdomen was shaved and disinfected routinely. A 1.5 cm incision was made along the midline and below the xiphoid, the stomach was taken gently, the gastric pylorus was ligated with surgical suture at the junction of the stomach pylorus and the duodenum, and the incision was sutured. The animals were fasted and water-deprived after the surgery. After 4 hours, the animals were anesthetized by intra-abdominally injecting 1% sodium pentobarbital. The incision was opened, and the gastric cardia was ligated. The stomach was taken out and cut open along the greater curvature of stomach. The gastric juice was collected and centrifuged at 3000 rpm for 10 minutes. The supernatant was aspirated and the volume of the gastric juice was measured. 0.5 mL of the gastric juice was taken and placed in a small conical flask, a drop of phenolphthalein indicator was added, and the mixture was titrated with 0.01 mol/L sodium hydroxide until the red color appeared (the color was no longer deepened) as the endpoint. The total amount of gastric acid was calculated according to the following formula. The average secretion amount of the gastric juice and the total acid amount of the gastric juice of each administered group and the model control group were subjected to statistical tests.
The inhibitory test of basal gastric acid secretion in rats was carried out after intragastric administration of the vonoprazan fumarate derivatives and vonoprazan fumarate, and the results were as shown in Table 1 and FIG. 1. […] The inhibitory effects of the vonoprazan fumarate derivative (Compound I-1a) with a dosage of 2 mg/kg on the secretion amount of gastric juice and the total acid amount of the gastric juice in rats were stronger than that of the same dosage (2 mg/kg) of vonoprazan fumarate, and there was a significant difference between the two (P<0.05). As compared with vonoprazan fumarate, the vonoprazan fumarate derivatives had stronger inhibitory effect on the gastric acid secretion in rats at the same dosage.

[2] = Pharmacokinetic experiment in rats after single intragastric administration (plasma LC-MS/MS); assay type: in vivo; settings: both sexes, SD, rat, po, 2 mg/kg intragastric; for AUC(0-inf) / Cmax / Tmax / half-life: n = 6; for bioavailability: n = 6, read-out: F (absolute bioavailability); for AUC(0-t): 2 mg/kg
Protocol: An equal amount of Compound I-1a (1-[5-(2-fluorophenyl)-1-(pyridin-3-yl-sulfonyl)-1H-pyrrol-3-yl]-N-methyldideuteromethanamine fumarate) prepared and obtained in the Example and vonoprazan fumarate were taken respectively and subjected to a pharmacokinetic experiment.
Drug formulating manner: 16 mg of the drug (the vonoprazan fumarate derivatives or vonoprazan fumarate) was weighed and taken, and dissolved in 2 mL of N-methylpyrrolidone. 38 mL of 5% glucose injection was further added thereto to prepare a dosing solution with a concentration of 0.4 mg/mL and the dosing solution was administered by intragastric administration.
Intragastric administration: 6 SD rats (half male and half female) were taken and orally administered as a single dose (2 mg/kg). Blood samples was collected after administration, and the time points of blood collection were 0.083 hours, 0.25 hours, 0.5 hours, 1 hour, 2 hours, 3 hours, 4 hours, 6 hours, 8 hours, 12 hours, 24 hours, 36 hours, and 48 hours after the administration.
Sample collection: 200 μL of whole blood was taken at each time point of blood collection, heparin was added for anticoagulation, and the mixture was centrifuged at 12000 rpm for 5 min at 4° C. 50 μL of the plasma was taken and placed in a polypropylene tube, and the rest was used for backup and stored at −20° C. to be tested.
Plasma treatment method: To 50 μL of rat plasma anticoagulated by heparin, 50 μL of methanol and […], of a solution of the internal standard etofesalamide in methanol (10 ng/mL) were added. The mixture was vortexed for 1 min and centrifuged at 12000 rpm for 10 min at 4° C. 100 μL of the supernatant was taken and placed in a vial insert, and 1 μL of the supernatant was injected for LC-MS/MS analysis.
The pharmacokinetic parameters were calculated by non-compartment model statistical moment method using WinNonlin 6.3 software.

[3] = mean, n = 6, read-out: AUC0-6 h

Row | AUC(0-inf) ([2]; mean) | Cmax ([2]; mean) | Tmax ([2]; mean) | half-life ([2]; mean) | bioavailability [2] | AUC(0-t) [2, 3] | AUC(0-t) ([2]; read-out: AUC0-t in the plasma) | SMILES | Inhibitory rate (basal gastric acid secretion) ([1]; 2 mg/kg intragastric) | Inhibitory rate (basal gastric acid secretion) ([1]; 1 mg/kg intragastric) | Amount of gastric juice ([1]; 1 mg/kg intragastric) | Total acid amount of the gastric juice ([1]; 1 mg/kg intragastric) | Amount of gastric juice ([1]; 2 mg/kg intragastric) | Total acid amount of the gastric juice ([1]; 2 mg/kg intragastric) | Effect on the total acid amount of the gastric juice as compared with the model control group [1] | further results
1 |  |  |  |  |  |  |  | O=C(O)/C=C/C(=O)O.[2H]C([2H])([2H])NC([2H])([2H])c1cc(-c2ccccc2F)n(S(=O)(=O)c2cccnc2)c1 [Compound I-2a, 1-[5-(2-fluorophenyl)-1-(pyridin-3-yl-sulfonyl)-1H-pyrrol-3-yl]-N-trideuteromethyldideuteromethanamine fumarate] | 95.5% |  |  |  |  |  |  | 
2 | 56.4 ng·h/mL | 74.9 ng/mL | 15 min | 57.7 min | 42.9% | 56.2 ng·h/mL | 56.4 ng·h/mL | [2H]C([2H])(NC)c1cc(-c2ccccc2F)n(S(=O)(=O)c2cccnc2)c1 [TAK-438d2, 1-[5-(2-fluorophenyl)-1-(pyridin-3-yl-sulfonyl)-1H-pyrrol-3-yl]-N-methyldideuteromethanamine] |  |  |  |  |  |  |  | 
3 |  |  |  |  |  |  |  | O=C(O)/C=C/C(=O)O.[2H]C([2H])(NC)c1cc(-c2ccccc2F)n(S(=O)(=O)c2cccnc2)c1 [Compound I-1a, 1-[5-(2-fluorophenyl)-1-(pyridin-3-yl-sulfonyl)-1H-pyrrol-3-yl]-N-methyldideuteromethanamine fumarate] | 95.3% | 52.7% | 2.6 ± 0.8 mL | 153.3 ± 85.9 µmol | 1.8 ± 0.9**^Δ mL | 15.3 ± 12.9***^Δ μmol | significant inhibitory effect | Effect on the secretion amount of gastric juice as compared with the model control group ([1]; 2 mg/kg, P<0.01): significant inhibitory effect; Inhibitory effects on secretion amount and total acid amount of gastric juice compared with same dosage of vonoprazan fumarate ([1]; 2 mg/kg, P<0.05): stronger
4 | 45 ng·h/mL | 67.3 ng/mL | 15 min | 47.8 min | 33.5% | 44.6 ng·h/mL | 45 ng·h/mL | CNCc1cc(-c2ccccc2F)n(S(=O)(=O)c2cccnc2)c1 [TAK-438, 1-[5-(2-fluorophenyl)-1-(pyridin-3-yl-sulfonyl)-1H-pyrrol-3-yl]-N-methylmethanamine, reference compound] |  |  |  |  |  |  |  | 
5 |  |  |  |  |  |  |  | O=C(O)/C=C/C(=O)O.[2H]c1nc([2H])c(S(=O)(=O)n2cc(C([2H])([2H])NC([2H])([2H])[2H])cc2-c2ccccc2F)c([2H])c1[2H] [Compound I-4a, 1-[5-(2-fluorophenyl)-1-(tetradeuteropyridin-3-yl-sulfonyl)-1H-pyrrol-3-yl]-N-trideuteromethyldideuteromethanamine fumarate] | 97.4% |  |  |  |  |  |  | 
6 |  |  |  |  |  |  |  | CNCc1cc(-c2ccccc2F)n(S(=O)(=O)c2cccnc2)c1 [vonoprazan fumarate, reference compound] | 73.8% | 43.1% | 3.1 ± 1.2 mL | 184.2 ± 83.4 µmol | 3.0 ± 1.3 mL | 84.9 ± 83.2 µmol | significant inhibitory effect | 
